Tested on: Spodoptera eridania
Assay: Southern armyworm (Spodoptera eridania), 2nd instar larvae, on dipped lima bean foliage
Type: in vivo
Conditions: 300 ppm, at 5 days
Procedure: The active compounds were formulated • a. for testing the activity against Aphis gossypii, Myzus persicae, and Aphis fabae, as 50:50 acetone:water solutions amended with 100 ppm Kinetic® (surfactant), • b. for testing the activity against Spodoptera eridania as a 10.000 ppm solution in a mixture of 35% acetone and water, which was diluted with water, if needed.
After the experiments were completed, in each case the lowest concentration was determined at which the compound still caused an 75 to 100% inhibition or mortality in comparison with untreated controls (limit or minimal concentration).
Foliage of two Sieva lima beans plants at the first expanded true-leaf stage that are contained within a single 3.8 cm square plastic pot are dipped into the test solution with agitation for 3 seconds and allowed to dry in a hood. The pot is then placed in a 25.4 cm plastic zipper top bag and infested with ten 2nd instar caterpillars. At 5 days, observations are made of mortality, reduced feeding, or any interference with normal molting.

Structure (SMILES): OCCNC(=S)NC(Cc1cccc(C(F)(F)F)c1)c1cc(Cl)ccc1Cl (stereo not shown) [Example 77]
- mortality in comparison with untreated controls: over 75%
